Where two headings read alike, the source gives them in different places.
Columns and labels:
PC9 = experiment: Cytotoxicity, PC9 cells; assay type: cell-based, human
A2780 = experiment: MTT cytotoxicity, ovarian cancer cells A2780; assay type: cell-based, human
Method: (§1) Cell cultures. The human ovarian A2780 and A2780cisR cancer were obtained from the American Type Culture Collection (ATCC, Rockville, Md.). Cell lines were maintained in the logarithmic phase at 37° C. under a 5% carbon dioxide atmosphere using RPMI 1640 medium containing 10% fetal calf serum, antibiotics (50 units per mL penicillin and 50 μg mL^−1 streptomycin) and 2 mM L-glutamine. MTT assay. The growth inhibitory effect towards human cell lines was evaluated by means of MTT (tetrazolium salt reduction) assay. Briefly, 3-8×10^3 cells per well, dependent upon the growth characteristics of the cell line, were seeded in 96-well microplates in growth medium (100 μL) and then incubated at 37° C. under a 5% carbon dioxide atmosphere. After 24 h, the medium was removed and replaced with a fresh one containing the compound to be studied at an appropriate concentration. Triplicate cultures were established for each treatment. After 72 h, each well was treated with 10 μL of a 5 mg mL^−1 MTT (3-(4,5-dimethylthiazol-2-yl)-2,5-diphenyltetrazoliumbromide) solution, and after additional 5 h, 100 μL of a sodium dodecyl sulfate (SDS) solution in 0.01 M HCl were added. Following overnight incubation, the inhibition of cell growth induced by the tested complexes was detected by measuring the absorbance of each well at 570 nm using a Bio-Rad 680 microplate reader (Bio-Rad, Hercules, CA).The mean absorbance for each drug dose was expressed as a percentage of the control untreated well absorbance and plotted vs. drug concentration.

A375 = experiment: Cytotoxicity, A375 cells; assay type: cell-based, human
A2780cisR = experiment: MTT cytotoxicity, cisplatin resistant line A2780cisR; assay type: cell-based, human
Method: as §1

physchem = assay type: physicochemical
Method: ctc-[Pt(NH3)2(Tax-Carb)(OH)Cl2] (3 mg, 0.0025 mmol) was dissolve in 750 μL of DMSO-d6 and mixed with ascorbic acid (2.2 mg, 0.0125 mmol). The ^1H NMR spectra were recorded every 6 min at 37° C.
We incubated ctc-[Pt(NH3)2(Tax-Carb)(OH)Cl2] with 5 eq of ascorbate and the reduction was followed by ^1H NMR. The NH proton in ctc-[Pt(NH3)2(Tax-Carb)(OH)Cl2] resonates at 9.2 ppm and in free taxol at ˜8.85 ppm. […] Similar results were obtained for the reduction of ctc-[Pt(NH3)2(EM-Carb)(OAc)Cl2] (FIG. 5A).

[1] = tested on: Lewis lung carcinoma (LLC); experiment: In vivo anticancer activity toward Lewis lung carcinoma (LLC) solid tumor; design: species or system C57BL mice; conditions: for reduction of tumor growth / tumor mass compared to the control group: LLC model, day 15, rounded values of the text; for In vivo efficacy LLC Inhibition of tumor growth (%) / In vivo efficacy LLC tumor weight: Table 1, daily dose 20 (Gem-Carb complex, oral), 3 (cisplatin), 60 (gemcitabine); for In vivo efficacy LLC Inhibition of tumor growth (%): day 15, vs control, 60 + 3 (combination) mg kg^-1; for In vivo efficacy LLC tumor weight / Average tumor weight (mean ± SD, g) / Inhibition of tumor growth (%): day 15; for In vivo efficacy LLC tumor weight: 60 + 3 (combination) mg kg^-1, days 7-14; for Average tumor weight (mean ± SD, g) / Inhibition of tumor growth (%): Table 2, daily oral 20 mg kg^-1 Gem-Carb complex, daily i.p. 3 mg kg^-1 cisplatin, 60 mg kg^-1 Gem or combination, days 7-14
Method: In vivo anticancer activity toward Lewis lung carcinoma (LLC). All studies involving animal testing were carried out in accordance with ethical guidelines for animal research acknowledging the European Directive 2010/63/UE as to the animal welfare and protection and the related codes of practice. The mice were purchased from Charles River, housed in steel cages under controlled environmental conditions (constant temperature, humidity, and 12 h dark/light cycle), and alimented with commercial standard feed and tap water ad libitum. The LLC cell line was purchased from ECACC, United Kingdom. The LLC cell line was maintained in DMEM (Euroclone) supplemented with 10% heat inactivated fetal bovine serum (Euroclone), 10 mM L-glutamine, 100 U mL-1 penicillin, and 100 μg mL^−1 streptomycin in a 5% CO2 air incubator at 37° C. The LLC was implanted intramuscularly (i.m.) as a 2×10^6 cell inoculum into the right hind leg of 8 week old male and female C57BL mice (24±3 g body weight). […] Control mice received the vehicle (0.5% DMSO (v/v) and 99.5% of a saline solution (v/v)), whereas treated groups received daily doses of ctc-[Pt(NH3)2(Gem-Carb)(PhB)Cl2] […] At day 15, animals were sacrificed, the legs were amputated at the proximal end of the femur, and the inhibition of tumor growth was determined from the difference in the weights of the tumor-bearing leg and the healthy leg of the animals, expressed as a percentage referenced to the control animals Body weight was measured at day 0 and from day 7 onwards every 2 days and was taken as a parameter for systemic toxicity. All presented values are the means ±SD of no less than three measurements.
Moreover, it provides no information on the toxicity of the compounds. […] Seven days after tumor inoculation the tumor-bearing mice were randomized into vehicle control and treatment groups. Control mice received the vehicle (0.5% DMSO (v/v) and 99.5% of a saline solution (v/v)), whereas treated groups received daily doses of ctc-[Pt(NH3)2(Gem-Carb)(PhB)Cl2] […] As an estimation of the adverse side effects, changes in the body weights were monitored every two days.

[2] = design: species or system C57BL mice; conditions: mouse, in vivo
Method: In vivo anticancer activity toward Lewis lung carcinoma (LLC). All studies involving animal testing were carried out in accordance with ethical guidelines for animal research acknowledging the European Directive 2010/63/UE as to the animal welfare and protection and the related codes of practice. The mice were purchased from Charles River, housed in steel cages under controlled environmental conditions (constant temperature, humidity, and 12 h dark/light cycle), and alimented with commercial standard feed and tap water ad libitum. The LLC cell line was purchased from ECACC, United Kingdom. […] At day 15, animals were sacrificed, the legs were amputated at the proximal end of the femur, and the inhibition of tumor growth was determined from the difference in the weights of the tumor-bearing leg and the healthy leg of the animals, expressed as a percentage referenced to the control animals Body weight was measured at day 0 and from day 7 onwards every 2 days and was taken as a parameter for systemic toxicity. […]
Moreover, it provides no information on the toxicity of the compounds. […] As an estimation of the adverse side effects, changes in the body weights were monitored every two days.

[3] = Homo sapiens, A2780, Table 1, 72 h incubation, MTT, read-out: In vitro IC50 (μM) Cancer cell lines A2780
[4] = Homo sapiens, A2780cisR, Table 1, 72 h incubation, MTT, read-out: In vitro IC50 (μM) Cancer cell lines A2780cisR

SMILES	IC50 (A2780; [3]) [nM]	IC50 (A2780cisR; [4]) [nM]	reduction of tumor growth / tumor mass compared to the control group [1]	In vivo efficacy LLC Inhibition of tumor growth (%) [1] [%]	In vivo efficacy LLC tumor weight [1] [g]	Average tumor weight (mean ± SD, g) [1] [g]	Inhibition of tumor growth (%) [1] [%]	other results
COc1ccc(/C=C\c2cc(OC)c(OC)c(OC)c2)cc1O [CA4, combretastatin-A4]	–	–	–	–	–	–	–	IC50 (PC9; Table 3, unit nM, read-out: Cytotoxicity data PC9 mean): 4.87 nM; IC50 (A2780; Table 3, unit nM, read-out: Cytotoxicity data A2780 mean): 2.12 nM; IC50 (A375; Table 3, unit nM, read-out: Cytotoxicity data A375 mean): 1.63 nM; IC50 (A2780cisR; Table 3, unit nM, read-out: Cytotoxicity data A2780 res mean): 2.63 nM
CC(=O)O[C@H]1C(=O)[C@@]2(C)[C@H]([C@H](OC(=O)c3ccccc3)[C@]3(O)C[C@H](OC(=O)[C@H](O)[C@@H](NC(=O)c4ccccc4)c4ccccc4)C(C)=C1C3(C)C)[C@]1(OC(C)=O)CO[C@@H]1C[C@@H]2O [Taxol, Paclitaxel]	2.2 ± 1	3 ± 0.06	–	–	–	–	–	IC50 (PC9; Homo sapiens, PC-9, Table 4, cells in nM, read-out: Cytotoxicity data PC9): 4.5 nM; IC50 (A2780; Homo sapiens, A2780, Table 4, cells in nM, read-out: Cytotoxicity data A2780): 1.05 nM; IC50 (A375; Homo sapiens, A-375, Table 4, cells in nM, read-out: Cytotoxicity data A375): 10 nM; IC50 (A2780cisR; Homo sapiens, A2780cisR, Table 4, cells in nM, read-out: Cytotoxicity data A2890cisR): 3.1 nM
N.N.[Cl-].[Cl-].[OH-].[OH-].[Pt+4] [Oxoplatin, oxoplatin]	–	–	–	–	–	–	–	IC50 (PC9; Table 3, unit μM, read-out: Cytotoxicity data PC9 mean): 3990 nM; IC50 (A2780; Table 3, unit μM, read-out: Cytotoxicity data A2780 mean): 450 nM; IC50 (A375; Table 3, unit μM, read-out: Cytotoxicity data A375 mean): 2210 nM; IC50 (A2780cisR; Table 3, unit μM, read-out: Cytotoxicity data A2780 res mean): 1170 nM
CC(=O)OC1C(=O)C2(C)C(O)CC3OCC3(OC(C)=O)C2C(OC(=O)c2ccccc2)C2(O)CC(OC(=O)C(OC(=O)[O][Pt]([NH2])([NH2])([OH])([Cl])[Cl])C(NC(=O)c3ccccc3)c3ccccc3)C(C)=C1C2(C)C (stereo not shown) [ctc-[Pt(NH3)2(Tax-Carb)(OH)Cl2]]	–	–	–	–	–	–	–	half-life at 3.3 mM (physchem): 25 min
Nc1ccn([C@@H]2O[C@H](CO)[C@@H](O)C2(F)F)c(=O)n1 [Gemcitabine, gemcitabine]	2 ± 1	5 ± 1	about 80%	80.5	0.08 ± 0.2	0.080 ± 0.2	80.5	body weight loss [2]: ~20%
N.N.[Cl][Pt][Cl] [Cisplatin, cisplatin]	–	–	~90%	90.3	0.040 ± 0.01	0.040 ± 0.01	90.3	–

From patent US20220251126A1, “ANTICANCER AGENTS” (Yissum Research Development Company of the Hebrew …, priority 2019, published 2022)
